Laboratory results reported in patent EP0510271A1, “Novel R106 compounds” (TAKARA SHUZO CO. LTD., priority 1991, dated 1992).
*1 amine or outer side, *2 acyl side, *3 side chain or, on linkers, in order; H or OH if unused. Where a SMILES comes first, the peptide text is derived from it. [ ]: non-standard residue; d: D form. ξ: configuration not given here. NMePhe(3-F) = CN[CH](Cc1cccc(F)c1)C(=O)O; NMePhe(2-F) = CN[CH](Cc1ccccc1F)C(=O)O; Phe(3-F) = N[CH](Cc1cccc(F)c1)C(=O)O; ξNMeVal(3-OH) = CNC(C(=O)O)C(C)(C)O; Phe(2-F) = N[CH](Cc1ccccc1F)C(=O)O; NMeY = CN[CH](Cc1ccc(O)cc1)C(=O)O; NMeF = CN[CH](Cc1ccccc1)C(=O)O; X1 = CCC(C)C(O[*:1])C(=O)[*:2]; Hyp = O=C(O)[CH]1C[CH](O)CN1; NMeV = CN[CH](C(=O)O)C(C)C; NMeS = CN[CH](CO)C(=O)O; Thz = O=C(O)[CH]1CSCN1

Assay: solubility in water
Conditions: compared with antibiotics R106

For `CCC(C)C1NC(=O)C2CCCN2C(=O)C(Cc2ccccc2F)N(C)C(=O)C(Cc2ccccc2F)NC(=O)C(C(C)C)N(C)C(=O)C(C(C)CC)OC(=O)C(C(C)(C)O)N(C)C(=O)C(CC(C)C)NC(=O)C(C(C)C)N(C)C1=O` (stereo not drawn) [Compound 1] (cyclo([ξNMeVal(3-OH)][X1][NMeV][Phe(2-F)][NMePhe(2-F)]PI[NMeV]L); configuration not given here), which solubility in water is on record?
Its solubility in water is “higher solubility in water than antibiotics R106”.

With `CCC(C)C1NC(=O)C2CCCN2C(=O)C(Cc2cccc(F)c2)N(C)C(=O)C(Cc2cccc(F)c2)NC(=O)C(C(C)C)N(C)C(=O)C(C(C)CC)OC(=O)C(C(C)(C)O)N(C)C(=O)C(CC(C)C)NC(=O)C(C(C)C)N(C)C1=O` (stereo not drawn) [Compound 2] (cyclo([ξNMeVal(3-OH)][X1][NMeV][Phe(3-F)][NMePhe(3-F)]PI[NMeV]L); configuration not given here) as the molecule, how does the solubility in water read?
Its solubility in water is “higher solubility in water than antibiotics R106”.

With `CCC(C)C1NC(=O)C2CCCN2C(=O)C(Cc2ccc(O)cc2)N(C)C(=O)C(Cc2ccc(O)cc2)NC(=O)C(C(C)C)N(C)C(=O)C(C(C)CC)OC(=O)C(C(C)(C)O)N(C)C(=O)C(CC(C)C)NC(=O)C(C(C)C)N(C)C1=O` (stereo not drawn) [Compound 3] (cyclo([ξNMeVal(3-OH)][X1][NMeV]Y[NMeY]PI[NMeV]L); configuration not given here) as the molecule, how does the solubility in water read?
The solubility in water was “higher solubility in water than antibiotics R106”.

For `CCC(C)C1NC(=O)C2CC(O)CN2C(=O)C(Cc2ccccc2)N(C)C(=O)C(Cc2ccccc2)NC(=O)C(C(C)C)N(C)C(=O)C(C(C)CC)OC(=O)C(C(C)(C)O)N(C)C(=O)C(CC(C)C)NC(=O)C(C(C)C)N(C)C1=O` (stereo not drawn) [Compound 4] (cyclo([ξNMeVal(3-OH)][X1][NMeV]F[NMeF][Hyp]I[NMeV]L); configuration not given here), which solubility in water is on record?
The solubility in water was “higher solubility in water than antibiotics R106”.

With `CCC(C)C1NC(=O)C2CSCN2C(=O)C(Cc2ccccc2)N(C)C(=O)C(Cc2ccccc2)NC(=O)C(C(C)C)N(C)C(=O)C(C(C)CC)OC(=O)C(C(C)(C)O)N(C)C(=O)C(CC(C)C)NC(=O)C(C(C)C)N(C)C1=O` (stereo not drawn) [Compound 5] (cyclo([ξNMeVal(3-OH)][X1][NMeV]F[NMeF][Thz]I[NMeV]L); configuration not given here) as the molecule, how does the solubility in water read?
Its solubility in water is “higher solubility in water than antibiotics R106”.

Which solubility in water does the source give for `CCC(C)C1NC(=O)C2CCCN2C(=O)C(CO)N(C)C(=O)C(Cc2ccccc2)NC(=O)C(C(C)C)N(C)C(=O)C(C(C)CC)OC(=O)C(C(C)(C)O)N(C)C(=O)C(CC(C)C)NC(=O)C(C(C)C)N(C)C1=O` (stereo not drawn) [Compound 9] (cyclo([ξNMeVal(3-OH)][X1][NMeV]F[NMeS]PI[NMeV]L); configuration not given here) here?
Its solubility in water is “higher solubility in water than antibiotics R106”.
